Our source for the IC50 values is patent US20070066646A1, “Compounds for Inhibiting Copper-Containing Amine Oxidases and Uses Thereof” (GENMEDICA THERAPEUTICS SL, priority 2005, published 2007).

One may read the IC50 as the concentration needed to halve the response being measured. The low end stands for higher potency, the high end for lower potency.

In the assay the target is T1, Human SSAO (Homo sapiens, UniProt Q16853).
T1 construct: Human or mice adipose tissue homogenates, used as a source of SSAO activity; from tissue; host or cells: human adipose tissue homogenate
T1 sequence (Q16853 1-763): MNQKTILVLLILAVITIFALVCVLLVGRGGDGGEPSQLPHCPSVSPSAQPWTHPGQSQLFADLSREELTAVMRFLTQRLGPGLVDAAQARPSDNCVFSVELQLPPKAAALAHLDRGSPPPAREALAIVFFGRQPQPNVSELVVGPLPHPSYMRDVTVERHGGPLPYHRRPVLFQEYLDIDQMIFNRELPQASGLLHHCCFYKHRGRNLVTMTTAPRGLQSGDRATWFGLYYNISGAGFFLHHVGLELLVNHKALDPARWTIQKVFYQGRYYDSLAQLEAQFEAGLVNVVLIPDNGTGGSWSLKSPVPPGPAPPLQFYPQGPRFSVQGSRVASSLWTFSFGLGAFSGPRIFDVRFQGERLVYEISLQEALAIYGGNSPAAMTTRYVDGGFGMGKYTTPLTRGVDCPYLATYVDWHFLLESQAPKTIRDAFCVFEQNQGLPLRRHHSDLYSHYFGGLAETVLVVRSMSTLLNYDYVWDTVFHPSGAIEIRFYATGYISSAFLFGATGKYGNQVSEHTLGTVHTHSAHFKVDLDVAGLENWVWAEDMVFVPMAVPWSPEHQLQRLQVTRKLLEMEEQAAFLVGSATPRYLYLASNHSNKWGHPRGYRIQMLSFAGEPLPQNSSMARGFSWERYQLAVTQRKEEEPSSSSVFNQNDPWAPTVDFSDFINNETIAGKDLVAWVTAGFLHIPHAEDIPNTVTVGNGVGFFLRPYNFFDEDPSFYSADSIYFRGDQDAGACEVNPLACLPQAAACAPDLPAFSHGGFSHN
As to the kind of experiment: SSAO activity determination (H2O2 detection with horseradish peroxidase/Amplex Red, benzylamine as substrate). The format is biochemical. The conditions noted are these: human adipose tissue homogenates as SSAO source, 20 min preincubation at 37° C., semicarbazide control subtracted. The procedure: SSAO Activity Determination:
All assays were performed at 37° C. with SSAO from human or mice adipose tissue. The enzyme activity was measured through detection of hydrogen peroxide formed by the oxidation of benzylamine. This method is based on the horseradish peroxidase catalyzed hydrogen peroxide oxidation of 10-acetyl-3,7-dihydroxyphenoxazine (Molecular Probes A-6550), that produces resorufin a highly fluorescent product (excitation, 545 nm; emission, 590 nm) (Zhou and Panchuk-Voloshina, 1997). Human or mice adipose tissue homogenates, used as a source of SSAO activity, were preincubated in 96 well microplates for 20 min at 37° C. in 180 μL of 200 mM Phosphate buffer and H2O2-detecting mixture containing horseradish peroxidase (final concentration 1 U/mL) and Amplex Red reagent (60 μM) and different concentrations of inhibitors when necessary. Catalytic reaction was initiated by addition of 20 μL of benzylamine as substrate at 10 mM for human homogenates giving final concentrations of 100 μM and 1 mM respectively. Fluorescence intensity of the samples was measured continuously during 1 h (excitation, 545 nm; emission, 590 nm) and H2O2 concentration was calculated from calibration curves generated by serial dilutions of standard H2O2. To evaluate the amount of H2O2 formed specifically via SSAO-mediated reaction, semicarbazide 100 μM was included in the control wells subjected to the same treatments and these values were subtracted from the total amount of H2O2 formed.
The inhibition was measured as % decrease of the signal compared to a control without inhibitor. Blank values in absence of substrates were subtracted from the fluorescence for each experimental condition. The IC50 shown in Table 1 were calculated with GraphPad Prism 4 program.

In turn, `Nc1ccc(C(=O)NCCCc2ccccc2)cc1O` [compound 45] had an IC50 of 0.146 ± 0.005 µM.
As for `Nc1ccc(O)c(C(=O)NCCOc2ccccc2)c1` [compound 52], the figure is 0.189 ± 0.016 µM.
As for `CC(O)C(NS(=O)(=O)c1ccc2cccc(N(C)C)c2c1)C(=O)NO` (stereo not shown) [compound 22], the figure is 0.369 ± 0.071 µM.
Under `CCC(C)(C)c1ccc(S(=O)(=O)NC(C(=O)NO)C(C)O)cc1` (stereo not shown) [compound 11] stands 0.004 ± 0.0005 µM.
`NC(=O)C1CCCN1C(=O)c1nccc2ccccc12` (stereo not shown) [compound 36]: the IC50 came out at 0.078 ± 0.024 µM.
Compound `CC(NC(=O)c1ccc(N)c(O)c1)c1ccc2ccccc2c1` (stereo not shown) [compound 43] displayed an IC50 of 0.337 ± 0.07 µM.
Under `CC(NC(=O)CCC(=O)NO)c1ccc2ccccc2c1` (stereo not shown) [compound 39] stands 0.39 ± 0.04 µM.
In turn, `Cc1ccc(C2(C(=O)NC(CCC(=O)NO)C(=O)O)CCCC2)cc1` (stereo not shown) [compound 27] displayed an IC50 of 0.214 ± 0.041 µM.
Under `O=C(CCC(=O)Nc1ccccc1O)NO` [compound 38] stands 0.14 ± 0.01 µM.
Under `Nc1ccc(C(=O)NCCc2ccccc2)cc1O` [compound 44] stands 0.185 ± 0.031 µM.
`NC(=O)C1CCCN1C(=O)c1ccc(-c2ccccc2)cc1` (stereo not shown) [compound 32] displayed an IC50 of 0.121 ± 0.047 µM.
In turn, `O=C(NO)C(CO)NS(=O)(=O)c1ccc(-c2ccccc2)cc1` (stereo not shown) [compound 5] gave an IC50 of 0.25 ± 0.02 µM. This IC50 lies about 2.1-fold higher than the previous one.
Under `O=C(O)CCC(NC(=O)CCCc1ccccc1)C(=O)O` (stereo not shown) [compound 28] stands 0.229 ± 0.092 µM; under `CCCc1ccc(S(=O)(=O)NC(CO)C(=O)NO)cc1` (stereo not shown) [compound 8], 0.066 ± 0.001 µM; under `O=C(CNC(=O)c1ccc(Br)cc1)NO` [compound 3], 0.1 ± 0.03 µM.
As for `O=C(NO)C1Cc2ccccc2C1` [compound 2], the figure is 1.1 ± 0.04 µM.
Regarding `CC(C)(C)c1ccc(C(=O)N2CCCC2C(N)=O)cc1` (stereo not shown) [compound 33], inhibition was half-maximal at 0.09 ± 0.002 µM (IC50).
Under `CCC(C)(C)c1ccc(S(=O)(=O)NCC(=O)NO)cc1` [compound 12] stands 1.57 ± 0.175 µM; under `CN(C)c1cccc2ccc(S(=O)(=O)NC(CO)C(=O)NO)cc12` (stereo not shown) [compound 21], 0.097 ± 0.021 µM; under `Cc1ccc(CCCC(=O)NC(CCC(=O)O)C(=O)O)cc1` (stereo not shown) [compound 29], 0.259 ± 0.062 µM.
As to `Nc1ccc(O)c(C(=O)NCc2ccccc2)c1` [compound 47], half-maximal inhibition (IC50) required 0.41 ± 0.063 µM.
Under `Nc1ccc(O)c(C(=O)NCc2ccccc2O)c1` [compound 48] stands 0.074 µM.
The compound `Nc1ccc(O)c(C(=O)NCc2ccc(F)cc2)c1` [compound 49] returned an IC50 of 0.253 ± 0.002 µM.
Under `Nc1ccc(C(=O)NCCOc2ccccc2)cc1O` [compound 42] stands 0.173 ± 0.009 µM.
`CCCc1ccc(S(=O)(=O)NC(C(=O)NO)C(C)O)cc1` (stereo not shown) [compound 9] came in with an IC50 of 0.136 ± 0.04 µM.
With `Nc1ccc(O)c(C(=O)NCCc2ccccc2)c1` [compound 53], half-maximal inhibition (IC50) required 0.618 ± 0.118 µM.
`COc1cc(CNC(=O)c2cc(N)ccc2O)cc(OC)c1` [compound 50] had an IC50 of 0.577 ± 0.027 µM.
As for `Nc1ccc(O)c(C(=O)NCCCCc2ccccc2)c1` [compound 55], the figure is 0.762 ± 0.06 µM; as for `O=C(CCc1ccccc1O)NCc1ccc(C(=O)NO)cc1` [compound 25], 0.941 ± 0.026 µM.
`O=C(O)CCC(NC(=O)c1cc2ccccc2[nH]1)C(=O)O` (stereo not shown) [compound 30] displayed an IC50 of 0.165 ± 0.007 µM.
As for `CC(O)C(NS(=O)(=O)c1ccc2cccnc2c1)C(=O)NO` (stereo not shown) [compound 20], the figure is 0.789 ± 0.061 µM.
On to `Cc1ccc(S(=O)(=O)NC(CN)C(=O)NO)cc1` (stereo not shown) [compound 19], for which the IC50 was 0.14 ± 0.03 µM.
Take `Nc1ccc(C(=O)NCCCCc2ccccc2)cc1O` [compound 46]: the IC50 turned out to be 0.401 ± 0.03 µM.
Under `CCC(C)(C)c1ccc(S(=O)(=O)NC(CO)C(=O)NO)cc1` (stereo not shown) [compound 10] stands 0.041 ± 0.008 µM; under `NC(=O)C1CCCN1C(=O)c1cc2ccccc2cc1O` (stereo not shown) [compound 34], 0.147 ± 0.044 µM.
In turn, `NCC(NS(=O)(=O)c1ccc(-c2ccccc2)cc1)C(=O)NO` (stereo not shown) [compound 7] gave an IC50 of 1.9 ± 0.2 µM.
The compound `Nc1ccc(C(=O)NCc2ccc3ccccc3c2)cc1O` [compound 41] displayed an IC50 of 0.25 ± 0.056 µM.
Turning to `Nc1ccc(O)c(C(=O)NCCCc2ccccc2)c1` [compound 54], the IC50 was 0.575 ± 0.023 µM.
As for `O=C(NO)C(CO)NS(=O)(=O)c1ccc2ccccc2c1` (stereo not shown) [compound 13], the figure is 0.067 ± 0.001 µM; as for `Cc1ccc(/C=C/C(=O)NC(CCC(=O)O)C(=O)O)cc1` (stereo not shown) [compound 31], 0.128 ± 0.03 µM.
In turn, `Nc1ccc(C(=O)NCc2ccc(F)cc2)cc1O` [compound 40] returned an IC50 of 0.202 ± 0.026 µM.
In turn, `Cc1ccc(S(=O)(=O)NC(C(=O)NO)C(C)O)cc1` (stereo not shown) [compound 18] came in with an IC50 of 0.041 ± 0.001 µM.
As for `O=C(CNS(=O)(=O)c1ccc2ccccc2c1)NO` [compound 17], the figure is 0.217 ± 0.039 µM.
As for `Cc1ccc(S(=O)(=O)NCc2ccc(C(=O)NO)cc2)cc1` [compound 23], the figure is 0.7 ± 0.04 µM; as for `CC(O)C(NS(=O)(=O)c1ccc2ccccc2c1)C(=O)NO` (stereo not shown) [compound 14], 0.054 ± 0.007 µM; as for `O=C(CNS(=O)(=O)c1ccc2ccccc2c1)NO` [compound 15], 0.217 ± 0.039 µM.
With `CC(O)C(NS(=O)(=O)c1ccc(-c2ccccc2)cc1)C(=O)NO` (stereo not shown) [compound 6], the IC50 was 0.3 ± 0.1 µM.
As for `NC(=O)C1CCCN1C(=O)c1ccc2ncccc2c1` (stereo not shown) [compound 35], the figure is 0.16 ± 0.031 µM.
With `O=C(O)CCC(NC(=O)Cc1ccc(-c2ccccc2)cc1)C(=O)O` (stereo not shown) [compound 26], the IC50 was found to be 0.125 ± 0.002 µM.
As for `Cc1ccc(C2(C(=O)NCc3ccc(C(=O)NO)cc3)CCCC2)cc1` [compound 24], the figure is 0.334 ± 0.08 µM.
As for `Nc1ccc(O)c(C(=O)NCc2ccc3ccccc3c2)c1` [compound 51], the figure is 0.477 ± 0.064 µM; as for `CC(CCc1ccccc1)NC(=O)CCC(=O)NO` (stereo not shown) [compound 37], 0.18 ± 0.01 µM.
